In patent EP0737689A1, “NOVEL 6-SUBSTITUTED OXA- OR […]” (TEIKOKU HORMONE MFG. CO., LTD., priority 1993, dated 1995):
pIC50: −log10 of the molar value.

Assays:
aromatase [1] = target: T1, aromatase (Homo sapiens, UniProt P11511); test: Assay of aromatase inhibition action (in vitro), 3H2O release from [1β-3H]androstenedione; format: biochemical; conditions: freeze dried human placental microsomes, 2 µM [1β-3H]androstenedione, 180 µM NADPH, pH 7.5, 37°C, 20 minutes
T1 construct: Human placental microsomes (ones subjected to centrifugation at 105,000 X g for 60 minutes) were prepared according to the method of Ryan; from tissue; host or cells: human placenta (microsomal fraction)
T1 sequence (P11511 1-503): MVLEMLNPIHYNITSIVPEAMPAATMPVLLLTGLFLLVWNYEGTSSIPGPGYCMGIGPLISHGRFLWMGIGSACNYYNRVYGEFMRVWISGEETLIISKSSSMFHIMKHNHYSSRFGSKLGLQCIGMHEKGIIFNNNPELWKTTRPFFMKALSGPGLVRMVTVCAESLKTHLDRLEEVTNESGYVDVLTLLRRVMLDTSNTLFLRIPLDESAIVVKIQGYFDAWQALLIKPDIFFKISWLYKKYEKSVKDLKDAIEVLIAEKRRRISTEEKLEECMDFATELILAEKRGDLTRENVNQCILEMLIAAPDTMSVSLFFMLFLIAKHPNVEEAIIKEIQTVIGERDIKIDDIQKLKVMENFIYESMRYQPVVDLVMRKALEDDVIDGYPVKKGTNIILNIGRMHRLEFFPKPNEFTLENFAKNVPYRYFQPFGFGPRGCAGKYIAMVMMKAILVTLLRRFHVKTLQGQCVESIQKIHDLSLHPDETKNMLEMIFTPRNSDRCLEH
Procedure: Human placental microsomes (ones subjected to centrifugation at 105,000 X g for 60 minutes) were prepared according to the method of Ryan (The Journal of Biological Chemistry 234, 268-272, 1959). The microsomes were washed twice with 0.5 mM dithiothreitol solution, freeze dried, and stored at -20°C until use.
An aromatase inhibition action was assayed according to the method developed by Tompson and Siiteri (The Journal of Biological Chemistry 249, 5373-5378, 1974). Namely, the method comprises quantitatively determining ^3H2O released when [1β-^3H]androstenedione is aromatized. The experiment, when the enzyme was used, was conducted in 67 mM phosphate buffer (pH 7.5) so that the amount of the final incubation solution could be 0.5 ml. The incubation solution contains 180 µM of NADPH, 2 µM of [1β-^3H]androstenedione, 150 µg of freeze dried human placental microsomes, 25 µl of methanol and a test compound at various concentrations. Incubation was conducted in the air at 37°C for 20 minutes, 3 ml of chloroform was added to discontinue the reaction, and then the mixture was stirred for 40 seconds. The mixture was then centrifuged at 700 X g for 10 minutes, 0.3 ml of the aqueous solution was sampled from the supernatant, the scintillation mixture was added, and the amount of ^3H2O formed was measured.

aromatase [2] = target: T2, aromatase (Rattus norvegicus, UniProt P22443); test: Assay of aromatase inhibition action (in vivo), inhibition of DHEAS-induced cornification of the vaginal smear; conditions: orally once a day for 4 days, hypophysectomized mature female rats, 16 mg/kg DHEAS, cornification relative to solvent administration group
T2 construct: mature female rats after one week from hypophysectomy were used; from tissue; host or cells: whole animal (hypophysectomised mature female rats)
T2 sequence (P22443 1-508): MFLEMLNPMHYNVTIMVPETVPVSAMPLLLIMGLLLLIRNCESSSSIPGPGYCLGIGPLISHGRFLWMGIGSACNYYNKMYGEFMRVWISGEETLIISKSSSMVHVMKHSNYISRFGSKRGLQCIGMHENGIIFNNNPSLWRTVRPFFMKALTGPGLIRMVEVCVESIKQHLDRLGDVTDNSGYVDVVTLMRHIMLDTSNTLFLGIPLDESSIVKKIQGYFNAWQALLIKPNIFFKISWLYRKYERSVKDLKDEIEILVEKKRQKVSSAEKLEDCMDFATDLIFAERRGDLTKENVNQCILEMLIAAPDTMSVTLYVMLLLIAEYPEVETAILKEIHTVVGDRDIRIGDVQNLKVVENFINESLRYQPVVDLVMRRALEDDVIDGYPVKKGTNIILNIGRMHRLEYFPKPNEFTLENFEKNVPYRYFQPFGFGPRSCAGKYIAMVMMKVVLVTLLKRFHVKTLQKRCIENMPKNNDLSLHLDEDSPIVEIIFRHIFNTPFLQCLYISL
Procedure: An aromatase inhibition action was assayed according to the method developed by G.H.Deckers and A.H.W.M.Schuurs (Journal of Steroid Biochemistry 32, 625-631, 1989).
Namely, mature female rats after one week from hypophysectomy were used with one group of 8 to 10 animals. Either 16 mg/kg of dehydroepiandrosterone sulfate (DHEAS) and 5 ml/kg of a solvent (physiological saline containing 2 % polysorbate 80), or DHEAS and a test compound suspended in the solvent were orally administered once a day for successive 4 days. For 6 days from the next day of start of the administration, the vaginal smear was sampled, and observed under a microscope after being stained with Giemsa staining solution. Cornification of the vaginal smear due to DHEAS was observed from 3 days after the initial administration, and its action disappeared 6 days thereafter. Therefore, the cornification smear number was expressed as the total of from the third day to the fifth day from the start of administration. An cornification inhibition action by the test compound was expressed as a rate to cornification in the solvent administration group.
Since cornification of the vaginal smear is caused by estrogens biosynthetically produced from DHEAS by aromatase, inhibition of the cornification is observed when aromatase is inhibited.

| SMILES | pIC50 (aromatase [1]) | Inhibition rate (%) (aromatase [2]; dose 5 mg/kg/day) | Inhibition rate (%) (aromatase [2]; dose 2 mg/kg/day) |
| --- | --- | --- | --- |
| CS[C@@H]1C[C@H]2[C@@H]3CCOC[C@@]3(C)CC[C@@H]2[C@@]2(C)C=CC(=O)C=C12 [Example 10, 6β-(methylthio)-D-homo-17-oxaandrosta-1,4-dien-3-one] | 6.10 | – | – |
| C[C@]12C=CC(=O)C=C1[C@@H](SC#N)C[C@@H]1[C@@H]2CC[C@]2(C)C(=O)OCC[C@@H]12 [Example 13 (6α), 6α-thiocyanato-D-homo-17-oxaandrosta-1,4-diene-3,17a-dione] | – | 81.3% | – |
| CC(=O)S[C@H]1C[C@@H]2[C@H](CC[C@]3(C)C(=O)OCC[C@@H]23)[C@@]2(C)C=CC(=O)C=C12 [Example 15, 6α-(acetylthio)-D-homo-17-oxaandrosta-1,4-diene-3,17a-dione] | 5.80 | – | 90.9% |
| C[C@]12CC[C@H]3[C@@H](C[C@H](N=[N+]=[N-])C4=CC(=O)C=C[C@@]43C)[C@@H]1CCOC2 [Example 17, 6α-azido-D-homo-17-oxaandrosta-1,4-dien-3-one] | – | 100% | – |
| CC(=O)S[C@H]1C[C@H]2[C@@H]3CCOC[C@@]3(C)CC[C@@H]2[C@@]2(C)C=CC(=O)C=C12 [Example 19, 6α-(acetylthio)-D-homo-17-oxaandrosta-1,4-dien-3-one] | – | 72.3% | – |
| CO[C@@H]1C[C@@H]2[C@H](CC[C@]3(C)C(=O)OCC[C@@H]23)[C@@]2(C)C=CC(=O)C=C12 [Example 31, 6β-methoxy-D-homo-17-oxaandrosta-1,4-diene-3,17a-dione] | – | 100% | – |
